# Measurements reported in US20090075926A1, “METHOD FOR IDENTIFYING AND MANIPULATING CELLS” (priority 2006, published 2009).
# T1: PSMGFR (MUC1*) peptide (Homo sapiens, UniProt P15941)
# T1 sequence (P15941 1110-1154 limits assumed): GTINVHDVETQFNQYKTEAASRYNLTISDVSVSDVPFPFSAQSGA
# What was measured:
# [1] = tested on: ERK2 phosphorylation (MAP kinase pathway) via PSMGFR region of MUC1; assay: western blot of ERK2 phosphorylation upon MUC1* dimerization and small molecule competition; assay type: cell-based; details: competitor small molecule present with anti-PSMGFR
# Description: FIG. 6 is a western blot of a competition experiment in which small molecules that bind to the PSMGFR region of MUC1 compete with anti-PSMGFR for binding to the site. […] The chemical formula for the competitor compound MN 9 referred to in this figure is
# The western blot probe antibody is phospho-ERK2. FIG. 6 is a western blot of a competition experiment in which small molecules that bind to the PSMGFR region of MUC1 compete with anti-PSMGFR for binding to the site.
# [2] = tested on: H9 human embryonic stem cells; assay: human embryonic stem cell growth / live-dead assay on matrigel; assay type: cell-based; details: for live stem cells when free peptide is added to monovalent anti-MUC1*: monovalent anti-MUC1* plus free MUC1* peptide vs no peptide
# Procedure: The details are that H9 low passage number hESCs were grown over matrigel for 7 days. To one set of wells was added bivalent anti-PSMGFR; to a second set was added the monovalent anti-PSMGFR; and to a third set buffer was added as a control. The results were that the addition of monovalent anti-PSMGFR caused stem cells to die within 8 hours. Cells immediately rounded up and within hours floated to the top of the media. […] Colonies were larger and in general had less differentiated cells.
# Based on the findings that MUC1* mediates growth in cancer cells, experiments were devised to show whether or not stem cell growth could be manipulated by altering the dimerization state of MUC1*. A set number of human embryonic stem cells, H9p55, were plated onto matrigel. Cells were treated with either: 1) the bivalent anti-MUC1* antibody (rabbit polyclonal antibody raised the PSMGFR sequence), which dimerizes the MUC1* portion of the receptor; 2) the monovalent form of this same antibody, which binds to a single MUC1* receptor and prevents dimerization; or 3) nothing added as a control. The most striking result was that nearly all the cells, to which the monovalent anti-MUC1* antibody was added, died within 8 hours of the treatment, see FIGS. 25 and 26. […] A complete reversal of the monovalent antibody induced cell death was not expected since the free peptide could also compete with the cell surface MUC1* receptor for binding to the activating ligand. […] Therefore, the experiment was repeated but the analysis was done in a manner that resultant cell numbers could be quantitated.
# A given number of cells H9p55 were added to each well. Again, the cells were treated with either bivalent anti-MUC1*, monovalent anti-MUC1* or no antibody as a control and then counted on a cell counting instrument. The graph of FIG. 32 summarizes the results. Again, treatment with the monovalent anti-MUC1* antibody caused cell death within 8 hours. […] The graph of FIG. 33 gives the details of this experiment. […]
# [3] = tested on: hematopoietic stem cells (CD34++CD38−); details: recombinant protein added; cited from earlier work
# HEL cells = details: recombinant human protein as GST fusion; cited from earlier work
# [4] = tested on: hematopoietic progenitor cells (CD34+CD38+); details: recombinant protein added; cited from earlier work
# PSMGFR (MUC1*) peptide = target: T1, PSMGFR (MUC1*) peptide; assay: immunoprecipitation with histidine-tagged PSMGFR (MUC1*) peptide and western blot with anti-NM23; assay type: binding; details: T47D cancer cell extracts
# Procedure: NM23 is the ligand that dimerizes and activates the MUC1* growth factor receptor. T47D cancer cell extracts were immunoprecipitated with magnetic beads that were pre-bound with histidine-tagged PSMGFR (MUC1*) peptide. The captured MUC1* binding species were then separated by SDS-PAGE. A western blot was then performed by probing the gel with an antibody that recognized NM23 H1.
# [5] = tested on: MUC1*-positive cancer cells; assay: growth of MUC1*-positive cancer cells with NM23; assay type: cell-based
# shed MUC1 = details: breast cancer patients; cited from earlier work
molecule,measurement,setting,value
O=C(c1ccc2ccccc2c1)N1CCc2c([nH]c3ccccc23)C1c1ccc(C(F)(F)F)cc1 (stereo not drawn) [Compound MN 9],ERK2 phosphorylation in competition with anti-PSMGFR,[1],ERK2 phosphorylation is inhibited
"MUC1* peptide: free peptide of the MUC1* (PSMGFR) extracellular sequence, competes with cell surface MUC1* (GTINVHDVETQFNQYKTEAASRYNLTISDVSVSDVPFPFSAQSGA; Fragment of MUC1 Growth Factor Receptor)",stem cell count on addition of MUC1* peptide,"[2]; bFGF added, with or without bivalent anti-MUC1*",drop in the cell count
same,live stem cells when free peptide is added to monovalent anti-MUC1*,[2],more live cells
same,live stem cells when free peptide is added to monovalent anti-MUC1*,[2]; listed as MUC1* free peptide,increase in the number of live cells
NM23-H1: recombinant NM23-H1 protein,growth of hematopoietic stem cells,[3],did not induce growth
same,erythroid differentiation of HEL cells by TGF-β1,HEL cells,block erythroid differentiation
same,"differentiation into granulocyte, macrophage, or granulocyte-macrophage colonies",[4],reduced the differentiation
NM23: natural ligand that dimerizes and activates the MUC1* growth factor receptor,binding to MUC1* peptide (immunoprecipitated species reacts with anti-NM23),PSMGFR (MUC1*) peptide,ligand to MUC1
same,growth of MUC1*-positive cancer cells,[5],stimulate the growth
"G-CSF: granulocyte colony stimulating factor (protein, UniProt P09919 31-207, looked up) Granulocyte …: TPLGPASSLPQSFLLKCLEQVRKIQGDGAALQEKLVSECATYKLCHPEELVLLGHSLGIPWAPLSSCPSQALQLAGCLSQLHSGLFLYQGLLQALEGISPELGPTLDTLQLDVADFATTIWQQMEELGMAPALQPTQGAMPAFASAFQRRAGGVLVASHLQSFLEVSYRVLRHLAQP",serum levels of shed MUC1,shed MUC1,greatly increased
"NM23-H2: recombinant NM23-H2 protein (protein, UniProt P22392 1-152, looked up) Nucleoside diphosphate kinase …: MANLERTFIAIKPDGVQRGLVGEIIKRFEQKGFRLVAMKFLRASEEHLKQHYIDLKDRPFFPGLVKYMNSGPVVAMVWEGLNVVKTGRVMLGETNPADSKPGTIRGDFCIQVGRNIIHGSDSVKSAEKEISLWFKPEELVDYKSCAHDWVYE",growth of hematopoietic stem cells,[3],did not induce growth
same,erythroid differentiation of HEL cells by TGF-β1,HEL cells,block erythroid differentiation
same,"differentiation into granulocyte, macrophage, or granulocyte-macrophage colonies",[4],reduced the differentiation
"NM23-H3: recombinant NM23-H3 protein (protein, UniProt Q13232 1-169, looked up) Nucleoside diphosphate kinase …: MICLVLTIFANLFPAACTGAHERTFLAVKPDGVQRRLVGEIVRRFERKGFKLVALKLVQASEELLREHYAELRERPFYGRLVKYMASGPVVAMVWQGLDVVRTSRALIGATNPADAPPGTIRGDFCIEVGKNLIHGSDSVESARREIALWFRADELLCWEDSAGHWLYE",growth of hematopoietic stem cells,[3],did not induce growth
same,"differentiation into granulocyte, macrophage, or granulocyte-macrophage colonies",[4],reduced the differentiation
